Assay results taken from the supplement of paper PMC4862054.

Key:
Assay in all cases: normalised viability (% of control), CellTiter-Blue; higher = more viable cells (about 100 = DMSO control)
Conditions in all cases: incubation time: 72 h
BT-474 = tested on: BT-474
Method: (§1)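 DSRT, CellTiter-Blue viability, 72 h incubation. Signal is normalised to DMSO and benzethonium chloride controls. Value is the normalised response at dose 3.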

BT-549 [1] = tested on: BT-549
Method: as §1

CAL-120 [2] = tested on: CAL-120
Method: as §1

CAL-148 [3] = tested on: CAL-148
Method: as §1

CAL-51 = tested on: CAL-51
Method: as §1

CAL-85-1 [4] = tested on: CAL-85-1
Method: as §1

DU-4475 = tested on: DU-4475
Method: as §1

HCC1143 = tested on: HCC1143
Method: as §1

HCC1599 = tested on: HCC1599
Method: as §1

HCC1937 = tested on: HCC1937
Method: as §1

HDQ-P1 = tested on: HDQ-P1
Method: as §1

Hs578T [5] = tested on: Hs578T
Method: as §1

MDA-MB-231 = tested on: MDA-MB-231
Method: as §1

MDA-MB-436 [6] = tested on: MDA-MB-436
Method: as §1

MDA-MB-453 [7] = tested on: MDA-MB-453
Method: as §1

MDA-MB-468 = tested on: MDA-MB-468
Method: as §1

MFM-223 [8] = tested on: MFM-223
Method: as §1

SK-BR-3 [9] = tested on: SK-BR-3
Method: as §1

BT-549 [10] = tested on: BT-549; remark: listed apart in the source
In short: (§2)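 Compound dissolved in 5 µl medium was pre-loaded into 384-well plates, and breast cancer cell lines in 20 µl suspension were seeded on top and incubated 72 h. After adding 2.5 µl CellTiter-Blue reagent for 2 h at 37 °C, fluorescence was read at 560/590 nm. Plates were normalised to vehicle (100) and a positive kill control (0), with Z'-factor quality control. Each value is normalised viability at a single listed concentration from the series.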

CAL-120 [11] = tested on: CAL-120; remark: listed apart in the source
In short: as §2

CAL-148 [12] = tested on: CAL-148; remark: listed apart in the source
In short: as §2

CAL-85-1 [13] = tested on: CAL-85-1; remark: listed apart in the source
In short: as §2

Hs578T [14] = tested on: Hs578T; remark: listed apart in the source
In short: as §2

MDA-MB-436 [15] = tested on: MDA-MB-436; remark: listed apart in the source
In short: as §2

MDA-MB-453 [16] = tested on: MDA-MB-453; remark: listed apart in the source
In short: as §2

MFM-223 [17] = tested on: MFM-223; remark: listed apart in the source
In short: as §2

SK-BR-3 [18] = tested on: SK-BR-3; remark: listed apart in the source
In short: as §2

CCN(CC)CCCC(C)Nc1ccnc2cc(Cl)ccc12 (stereo not given) [Chloroquine]
Conditions | normalised viability [%]
BT-474, 9.9 nM | 104
BT-549 [1], 9.9 nM | 104
BT-549 [10], 0.99 nM | 88.3
BT-549 [10], 99 nM | 95.6
BT-549 [10], 990 nM | 108
CAL-51, 0.99 nM | 90.3
CAL-85-1 [4], 0.99 nM | 94.8
CAL-85-1 [13], 0.297 nM | 95.5
CAL-85-1 [13], 2.97 nM | 90
CAL-85-1 [13], 9.9 nM | 97
CAL-120 [2], 9.9 nM | 102
CAL-120 [11], 0.99 nM | 96.1
CAL-120 [11], 99 nM | 104
CAL-120 [11], 990 nM | 105
CAL-148 [3], 0.99 nM | 85
CAL-148 [12], 0.297 nM | 88.5
CAL-148 [12], 2.97 nM | 89.1
CAL-148 [12], 9.9 nM | 89.4
DU-4475, 0.99 nM | 98.2
HCC1143, 9.9 nM | 87.7
HCC1599, 9.9 nM | 128
HCC1937, 9.9 nM | 115
HDQ-P1, 0.99 nM | 106
Hs578T [5], 9.9 nM | 90.2
Hs578T [14], 0.99 nM | 92
Hs578T [14], 99 nM | 106
Hs578T [14], 990 nM | 93.1
MDA-MB-231, 9.9 nM | 107
MDA-MB-436 [6], 9.9 nM | 117
MDA-MB-436 [15], 0.99 nM | 133
MDA-MB-436 [15], 99 nM | 104
MDA-MB-436 [15], 990 nM | 141
MDA-MB-453 [7], 0.99 nM | 100
MDA-MB-453 [16], 0.297 nM | 108
MDA-MB-453 [16], 2.97 nM | 111
MDA-MB-453 [16], 9.9 nM | 105
MDA-MB-468, 9.9 nM | 105
MFM-223 [8], 9.9 nM | 98.2
MFM-223 [17], 0.99 nM | 101
MFM-223 [17], 99 nM | 106
MFM-223 [17], 990 nM | 94.2
SK-BR-3 [9], 9.9 nM | 92
SK-BR-3 [18], 0.99 nM | 103
SK-BR-3 [18], 99 nM | 93.4
SK-BR-3 [18], 990 nM | 101

COc1c2occc2cc2ccc(=O)oc12 [Methoxsalen]
Conditions | normalised viability [%]
BT-474, 100 nM | 115
BT-549 [1], 100 nM | 109
BT-549 [10], 10 nM | 90.9
BT-549 [10], 1000 nM | 104
BT-549 [10], 10000 nM | 82.9
CAL-51, 10 nM | 105
CAL-85-1 [4], 10 nM | 100
CAL-85-1 [13], 3 nM | 92.9
CAL-85-1 [13], 30 nM | 92.6
CAL-85-1 [13], 100 nM | 92.5
CAL-120 [2], 100 nM | 106
CAL-120 [11], 10 nM | 99.1
CAL-120 [11], 1000 nM | 101
CAL-120 [11], 10000 nM | 104
CAL-148 [3], 10 nM | 99.5
CAL-148 [12], 3 nM | 98.7
CAL-148 [12], 30 nM | 95.8
CAL-148 [12], 100 nM | 100
DU-4475, 10 nM | 95.5
HCC1143, 100 nM | 106
HCC1599, 100 nM | 104
HCC1937, 100 nM | 104
HDQ-P1, 10 nM | 99.3
Hs578T [5], 100 nM | 102
Hs578T [14], 10 nM | 55.3
Hs578T [14], 1000 nM | 138
Hs578T [14], 10000 nM | 110
MDA-MB-231, 100 nM | 100
MDA-MB-436 [6], 100 nM | 103
MDA-MB-436 [15], 10 nM | 90.6
MDA-MB-436 [15], 1000 nM | 87.1
MDA-MB-436 [15], 10000 nM | 93.8
MDA-MB-453 [7], 10 nM | 95.2
MDA-MB-453 [16], 3 nM | 119
MDA-MB-453 [16], 30 nM | 103
MDA-MB-453 [16], 100 nM | 112
MDA-MB-468, 100 nM | 104
MFM-223 [8], 100 nM | 92.9
MFM-223 [17], 10 nM | 100
MFM-223 [17], 1000 nM | 101
MFM-223 [17], 10000 nM | 50.5
SK-BR-3 [9], 100 nM | 98.6
SK-BR-3 [18], 10 nM | 104
SK-BR-3 [18], 1000 nM | 127
SK-BR-3 [18], 10000 nM | 104
